# According to US10787444B2, “Compounds for the modulation of myc activity” (Syros Pharmaceuticals, Inc., priority 2015, dated 2020):
# Where two headings read alike, the source gives them in different places.
# Columns and labels:
# c-Myc/Max/Ebox DNA = target: T1, c-Myc/Max/Ebox DNA (Homo sapiens, UniProt P01106); assay: c-Myc/Max/Ebox DNA AlphaScreen Assay; assay type: binding; settings: calculated IC50 class
# T1 construct: his6 (cleaved yes)
# Method in brief: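 Compounds were preincubated with free c-Myc (20 nM), biotinylated single-Ebox DNA (10 nM) and Ni acceptor beads before his6-Max (5 nM) and streptavidin donor beads were added. Buffer was 50 mM HEPES pH 8.0, 150 mM NaCl, BSA, Tween20, glycogen and DTT, with DMSO ≤2%. After 2 h incubation, AlphaScreen signal was read at 680 nm excitation and 520–620 nm emission.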
# [1] = test system: human small lung cancer cell line H2171; assay: Cell Viability Assay (ATPlite); assay type: cell-based; settings: H2171 cells, three days, ATPlite, calculated IC50 class, read-out: H2171 Activity
# Method in brief: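 Viability readout was ATPlite luminescence, taken after 3 days' incubation at 37° C. Human SCLC H2171 cells (20,000 cells/mL) received compound right after plating, as a 10-point dose response.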
# [2] = Homo sapiens, NCI-H2171, 72 h, Table 2, compounds of FIG. 1
# [3] = Homo sapiens, NCI-H2171, 72 h, Table 3, compounds of FIG. 2
# [4] = Table 2, compounds of FIG. 1, listed as 116
# T1 sequence (P01106 whole entry): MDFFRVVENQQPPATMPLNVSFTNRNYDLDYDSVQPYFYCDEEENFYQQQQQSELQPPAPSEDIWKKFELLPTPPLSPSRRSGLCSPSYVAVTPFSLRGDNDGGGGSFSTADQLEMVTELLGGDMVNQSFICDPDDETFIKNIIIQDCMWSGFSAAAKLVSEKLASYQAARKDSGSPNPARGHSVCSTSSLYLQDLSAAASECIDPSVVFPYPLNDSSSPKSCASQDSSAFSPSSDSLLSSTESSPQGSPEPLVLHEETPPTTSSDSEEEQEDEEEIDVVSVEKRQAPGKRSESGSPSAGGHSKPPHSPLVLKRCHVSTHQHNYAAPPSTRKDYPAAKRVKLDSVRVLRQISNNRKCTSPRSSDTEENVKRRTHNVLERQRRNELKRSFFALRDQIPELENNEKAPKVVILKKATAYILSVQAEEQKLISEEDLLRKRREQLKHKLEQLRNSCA
SMILES,"IC50 (c-Myc/Max/Ebox DNA; Table 2, compounds of FIG. 1)","IC50 [1, 2]",further results
"CC(C)NCCC(=O)Nc1sc2c(c1-c1nc3ccccc3s1)CCNC2 [Compound 129, N-(3-(benzo[d]thiazol-2-yl)-4,5,6,7-tetrahydrothieno[2,3-c]pyridin-2-yl)-3-(isopropylamino)propanamide]",< 300 nM,< 300 nM,
"COCCNCCC(=O)Nc1sc2c(c1-c1nc3cc(F)ccc3s1)CC(C)NC2C (single isomer, unassigned) [Compound 546, N-(3-(5-Fluorobenzo[d]thiazol-2-yl)-5,7-dimethyl-4,5,6,7-tetrahydrothieno[2,3-c]pyridin-2-yl)-3-((2-methoxyethyl)amino)propanamide]",> 10000 nM,,"IC50 ([1]; Table 2, compounds of FIG. 1): < 300 nM"
CC(C)NCCC(=O)Nc1sc2c(c1-c1nc3c(-c4cnn(C)c4)cccc3s1)CCNC2 [compound 515],< 300 nM,< 300 nM,
"CCC(C)NCCC(=O)Nc1sc2c(c1-c1nc3ccccc3s1)CC[N+](C)(C(C)C)C2 (centres unmarked) [Compound 191, 3-(benzo[d]thiazol-2-yl)-2-(3-(sec-butylamino)propanamido)-6-isopropyl-6-methyl-4,5,6,7-tetrahydrothieno[2,3-c]pyridin-6-ium]",< 300 nM,1000 to 10000 nM,
"CC(=O)Nc1sc2c(c1-c1nc3ccccc3s1)C[C@H](C)N[C@@H]2C [Compound 219, N-((5S,7R)-3-(benzo[d]thiazol-2-yl)-5,7-dimethyl-4,5,6,7-tetrahydrothieno[2,3-c]pyridin-2-yl)acetamide]",,,"IC50 (c-Myc/Max/Ebox DNA; Table 3, compounds of FIG. 2): 1000 to 10000 nM; IC50 [1, 3]: < 300 nM"
CC(C)NCCC(=O)Nc1sc2c(c1-c1nc3cc(-n4cnc(Cl)c4)ccc3s1)CCNC2 [compound 173],< 300 nM,< 300 nM,
CC(C)NCCC(=O)Nc1sc2c(c1-c1nc3c(-c4ccncc4)cccc3s1)CCNC2 [compound 535],< 300 nM,< 300 nM,
"CC[C@H](C)NCCC(=O)Nc1sc2c(c1-c1nc3cc(-c4ccncc4)ccc3s1)CCN(C1CC1)C2 [Compound 618, (S)-3-(sec-butylamino)-N-(6-cyclopropyl-3-(5-(pyridin-4-yl)benzo[d]thiazol-2-yl)-4,5,6,7-tetrahydrothieno[2,3-c]pyridin-2-yl)propanamide]",< 300 nM,< 300 nM,
"O=C(CCN[C@@H]1C[C@H]2CNC[C@H]2C1)Nc1sc2c(c1-c1nc3ccccc3s1)CCNC2 [Compound 573, N-(3-(Benzo[d]thiazol-2-yl)-4,5,6,7-tetrahydrothieno[2,3-c]pyridin-2-yl)-3-(((3aR,5s,6aS)-octahydrocyclopenta[c]pyrrol-5-yl)amino)propanamide]",300 to 1000 nM,300 to 1000 nM,
"COCCNCCC(=O)Nc1sc2c(c1-c1nc3ccccc3s1)CC(C)NC2C (centres unmarked) [Compound 315, N-(3-(Benzo[d]thiazol-2-yl)-5,7-dimethyl-4,5,6,7-tetrahydrothieno[2,3-c]pyridin-2-yl)-3-((2-methoxyethyl)amino)propanamide]",300 to 1000 nM,,"IC50 ([1]; Table 2, compounds of FIG. 1): < 300 nM"
"CNCCC(=O)Nc1sc2c(c1-c1nc3ccccc3s1)CCNC2 [Compound 128, N-(3-(benzo[d]thiazol-2-yl)-4,5,6,7-tetrahydrothieno[2,3-c]pyridin-2-yl)-3-(methylamino)propanamide]",< 300 nM,< 300 nM,
"CC(C)N1CCc2c(sc(NC(=O)CCNC(C)(C)C)c2-c2nc3ccccc3s2)C1 [Compound 127, N-(3-(benzo[d]thiazol-2-yl)-6-isopropyl-4,5,6,7-tetrahydrothieno[2,3-c]pyridin-2-yl)-3-(tert-butylamino)propanamide]",300 to 1000 nM,300 to 1000 nM,
"CC[C@H](C)NCCC(=O)Nc1sc2c(c1-c1nc3ccccc3s1)CC(C)NC2C (single isomer, unassigned) [Compound 620]",1000 to 10000 nM,,"IC50 ([1]; Table 2, compounds of FIG. 1): 1000 to 10000 nM"
"CCOC(=O)CCOCCOCCOCCOCCOCCOCCNCCC(=O)Nc1sc2c(c1-c1nc3ccccc3s1)CCNC2 [Compound 622, Ethyl 1-((3-(benzo[d]thiazol-2-yl)-4,5,6,7-tetrahydrothieno[2,3-c]pyridin-2-yl)amino)-1-oxo-7,10,13,16,19,22-hexaoxa-4-azapentacosan-25-oate]",< 300 nM,< 300 nM,
"CC(C)NCCC(=O)Nc1sc2c(c1-c1nc3cc(C(=O)O)ccc3s1)CCNC2 [Compound 320, 2-(2-(3-(Isopropylamino)propanamido)-4,5,6,7-tetrahydrothieno[2,3-c]pyridin-3-yl)benzo[d]thiazole-5-carboxylic acid]",300 to 1000 nM,< 300 nM,
COCCNCCC(=O)Nc1sc2c(c1-c1nc3c(NC4COC4)cccc3s1)CCNC2 [compound 600],< 300 nM,< 300 nM,
"CC(C)NCCC(=O)Nc1sc2c(c1-c1nc3ccccc3s1)CCN(C(C)C)C2 [Compound 132, N-(3-(benzo[d]thiazol-2-yl)-6-isopropyl-4,5,6,7-tetrahydrothieno[2,3-c]pyridin-2-yl)-3-(isopropylamino)propanamide]",300 to 1000 nM,300 to 1000 nM,
"COCCNCCC(=O)Nc1sc2c(c1-c1nc3cc(-c4ccncc4)ccc3s1)CCNC2C (single isomer, unassigned) [Compound 569, 3-((2-Methoxyethyl)amino)-N-(7-methyl-3-(5-(pyridin-4-yl)benzo[d]thiazol-2-yl)-4,5,6,7-tetrahydrothieno[2,3-c]pyridin-2-yl)propanamide]",1000 to 10000 nM,,"IC50 ([1]; Table 2, compounds of FIG. 1): 1000 to 10000 nM"
"CC[C@H](C)NCCC(=O)Nc1sc2c(c1-c1nc3ccccc3s1)CCN(C(C)C)C2 [Compound 135, (S)—N-(3-(benzo[d]thiazol-2-yl)-6-isopropyl-4,5,6,7-tetrahydrothieno[2,3-c]pyridin-2-yl)-3-(sec-butylamino)propanamide]",< 300 nM,< 300 nM,
"CCC(C)NCCC(=O)Nc1sc2c(c1-c1nc3cc4c(cc3s1)OCO4)CCNC2 (centres unmarked) [Compound 555, N-(3-([1,3]Dioxolo[4′,5′:4,5]benzo[1,2-d]thiazol-6-yl)-4,5,6,7-tetrahydrothieno[2,3-c]pyridin-2-yl)-3-(sec-butylamino)propanamide]",< 300 nM,< 300 nM,"IC50 (c-Myc/Max/Ebox DNA; [4]): 1000 to 10000 nM; IC50 [1, 4]: 1000 to 10000 nM"
CC(C)NCCC(=O)Nc1sc2c(c1-c1nc3ccc(-c4cccnc4)cc3s1)CCNC2 [compound 193],< 300 nM,< 300 nM,
"CC(C)(C)NCCC(=O)Nc1sc2c(c1-c1nc3ccccc3s1)CCNC2 [Compound 131, N-(3-(benzo[d]thiazol-2-yl)-4,5,6,7-tetrahydrothieno[2,3-c]pyridin-2-yl)-3-(tert-butylamino)propanamide]",< 300 nM,300 to 1000 nM,
"CC(=O)Nc1sc2c(c1-c1nc3ccccc3s1)C(F)CNC2 (centres unmarked) [Compound 217, N-(3-(benzo[d]thiazol-2-yl)-4-fluoro-4,5,6,7-tetrahydrothieno[2,3-c]pyridin-2-yl) acetamide]",,,"IC50 (c-Myc/Max/Ebox DNA; Table 3, compounds of FIG. 2): > 10000 nM; IC50 [1, 3]: < 300 nM"
"CC(=O)Nc1sc2c(c1-c1nc3ccccc3s1)CCC(N(C)C)C2 (centres unmarked) [Compound 223, N-(3-(benzo[d]thiazol-2-yl)-6-(dimethylamino)-4,5,6,7-tetrahydrobenzo[b]thiophen-2-yl)acetamide]",,,"IC50 (c-Myc/Max/Ebox DNA; Table 3, compounds of FIG. 2): 1000 to 10000 nM; IC50 [1, 3]: > 10000 nM"
"COCCNCCC(=O)Nc1sc2c(c1-c1nc3cc(-c4ccncc4)ccc3s1)CC(C)NC2C (single isomer, unassigned) [Compound 522, N-(5,7-dimethyl-3-(5-(pyridin-4-yl)benzo[d]thiazol-2-yl)-4,5,6,7-tetrahydrothieno[2,3-c]pyridin-2-yl)-3-((2-methoxyethyl)amino)propanamide]",< 300 nM,,"IC50 ([1]; Table 2, compounds of FIG. 1): < 300 nM"
"CCC(C)NCCC(=O)Nc1sc2c(c1-c1nc3cc(C(F)(F)F)ccc3s1)CCN(C(C)C)C2 (centres unmarked) [Compound 142, 3-(sec-butylamino)-N-(6-isopropyl-3-(5-(trifluromethyl)benzo[d]thiazol-2-yl)-4,5,6,7-tetrahydrothieno[2,3-c]pyridin-2-yl)propanamide]",< 300 nM,< 300 nM,
"COCCNCCC(=O)Nc1sc2c(c1-c1nc3ccc(-c4cccnc4)cc3s1)CC(C)NC2C (single isomer, unassigned) [Compound 519, N-(5,7-Dimethyl-3-(6-(pyridin-3-yl)benzo[d]thiazol-2-yl)-4,5,6,7-tetrahydrothieno[2,3-c]pyridin-2-yl)-3-((2-methoxyethyl)amino)propanamide]",< 300 nM,< 300 nM,
COCCNCCC(=O)Nc1sc2c(c1-c1nc3cc(-c4ccn[nH]4)ccc3s1)CCNC2 [compound 406],< 300 nM,< 300 nM,
"CCC(C)NCCC(=O)Nc1sc2c(c1-c1nc3ccccc3s1)CCNC2 (centres unmarked) [Compound 124, N-(3-(benzo[d]thiazol-2-yl)-4,5,6,7-tetrahydrothieno[2,3-c]pyridin-2-yl)-3-(sec-butylamino)propanamide]",< 300 nM,< 300 nM,
"CC[C@H](C)NCCC(=O)Nc1sc2c(c1-c1nc3cc(C(F)(F)F)ccc3s1)CC(C)NC2C (single isomer, unassigned) [Compound 585]",< 300 nM,,"IC50 ([1]; Table 2, compounds of FIG. 1): < 300 nM"
